Test in all cases: biochemical
Common to all, as to design: In vitro kinase panel profiling, per cent remaining kinase activity at 10 uM

Assay [1] concerns the target T1, AMPKα1(h) (Homo sapiens, UniProt Q13131).
T1 construct: gene PRKAA1
Particulars: atp_concentration=45, read-out: % of control remaining. The text has this:
(§1) We derisk potential for off-target activity by profiling the compound in a CEREP panel, a standard secondary pharmacology assessment, as well as a kinase panel to derisk a potential hinge-binding motif in our leads, and a PARP panel to derisk activity against human […]. Reassuringly, the compounds are selective, with the only off-targets being moderate human CHRM2 and KOR receptors activity associated with ASAP-0011198.

Assay [2] addresses EphA5(h) (Homo sapiens, UniProt P54756). Particulars: atp_concentration=10, read-out: % of control remaining.
From the text: as §1

Assay [3] deals with T2, IGF-1R(h) (Homo sapiens, UniProt P08069).
T2 construct: gene IGF1R
Particulars: atp_concentration=200, read-out: % of control remaining.
From the text: as §1

The target of assay [4] is T3, NEK2(h) (Homo sapiens, UniProt P51955).
T3 sequence (P51955 1-445): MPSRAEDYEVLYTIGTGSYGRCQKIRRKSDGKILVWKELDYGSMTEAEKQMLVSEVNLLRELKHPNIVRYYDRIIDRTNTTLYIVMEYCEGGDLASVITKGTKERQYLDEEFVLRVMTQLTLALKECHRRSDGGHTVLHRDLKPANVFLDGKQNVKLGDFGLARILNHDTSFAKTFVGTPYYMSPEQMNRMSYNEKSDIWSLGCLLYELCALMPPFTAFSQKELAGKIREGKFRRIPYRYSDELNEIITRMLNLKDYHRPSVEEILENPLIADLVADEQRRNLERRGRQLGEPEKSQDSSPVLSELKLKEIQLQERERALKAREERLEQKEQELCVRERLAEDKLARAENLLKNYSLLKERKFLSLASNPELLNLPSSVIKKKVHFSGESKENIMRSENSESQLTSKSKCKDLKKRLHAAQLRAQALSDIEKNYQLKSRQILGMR
To be noted: atp_concentration=120, read-out: % of control remaining.
From the text: as §1

The target of assay [5] is PAK2(h) (Homo sapiens, UniProt Q13177). Particulars: atp_concentration=90, read-out: % of control remaining.
Chain of PAK2(h) (Q13177 whole entry): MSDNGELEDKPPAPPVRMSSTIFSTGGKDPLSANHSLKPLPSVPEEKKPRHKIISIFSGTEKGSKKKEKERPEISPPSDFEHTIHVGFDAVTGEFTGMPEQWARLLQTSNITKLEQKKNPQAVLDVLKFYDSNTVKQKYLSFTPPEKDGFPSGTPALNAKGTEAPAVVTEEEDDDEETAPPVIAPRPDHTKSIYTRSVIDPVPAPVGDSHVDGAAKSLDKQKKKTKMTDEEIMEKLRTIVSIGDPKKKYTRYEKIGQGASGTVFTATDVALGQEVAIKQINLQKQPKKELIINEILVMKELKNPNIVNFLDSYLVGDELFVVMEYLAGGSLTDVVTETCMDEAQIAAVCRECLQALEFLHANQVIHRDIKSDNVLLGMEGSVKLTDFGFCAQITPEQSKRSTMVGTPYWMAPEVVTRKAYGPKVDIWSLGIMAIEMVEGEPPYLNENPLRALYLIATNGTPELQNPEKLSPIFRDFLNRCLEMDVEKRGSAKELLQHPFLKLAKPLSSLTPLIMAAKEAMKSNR
From the text: as §1

Assay [6] addresses T4, PI3 Kinase (p110β/p85α)(h) (Homo sapiens, UniProt P42338).
T4 construct: gene PIK3CB
To be noted: atp_concentration=200, read-out: % of control remaining.
From the text: as §1

For assay [7], the target named is T5, PI3 Kinase (p120γ)(h) (Homo sapiens, UniProt P48736).
T5 construct: gene PIK3CG
To be noted: atp_concentration=100, read-out: % of control remaining.
From the text: as §1

Assay [8] concerns the target T6, PRAK(h) (Homo sapiens, UniProt Q8IW41).
T6 construct: gene MAPKAPK5
T6 sequence (Q8IW41 1-473): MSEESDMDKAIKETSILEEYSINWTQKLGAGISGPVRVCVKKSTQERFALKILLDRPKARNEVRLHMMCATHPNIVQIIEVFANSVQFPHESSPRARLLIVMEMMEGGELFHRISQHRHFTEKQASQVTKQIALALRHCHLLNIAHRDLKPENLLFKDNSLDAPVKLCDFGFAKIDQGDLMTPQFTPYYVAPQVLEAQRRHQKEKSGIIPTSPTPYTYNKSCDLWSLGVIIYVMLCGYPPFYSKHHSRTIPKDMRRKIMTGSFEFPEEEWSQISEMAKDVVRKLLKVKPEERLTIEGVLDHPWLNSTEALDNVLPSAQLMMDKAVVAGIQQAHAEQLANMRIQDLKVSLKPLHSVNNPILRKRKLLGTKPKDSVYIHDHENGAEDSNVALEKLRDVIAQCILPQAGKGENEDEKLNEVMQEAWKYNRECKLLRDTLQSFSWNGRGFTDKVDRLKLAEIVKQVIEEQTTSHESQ
To be noted: atp_concentration=15, read-out: % of control remaining.
From the text: as §1

Assay [9] addresses T7, c-RAF(h) (Homo sapiens, UniProt P04049).
T7 construct: gene RAF1
To be noted: atp_concentration=120, read-out: % of control remaining.
From the text: as §1

The target in assay [10] is T8, eEF-2K(h) (Homo sapiens, UniProt O00418).
T8 construct: gene EEF2K
T8 sequence (O00418 1-725): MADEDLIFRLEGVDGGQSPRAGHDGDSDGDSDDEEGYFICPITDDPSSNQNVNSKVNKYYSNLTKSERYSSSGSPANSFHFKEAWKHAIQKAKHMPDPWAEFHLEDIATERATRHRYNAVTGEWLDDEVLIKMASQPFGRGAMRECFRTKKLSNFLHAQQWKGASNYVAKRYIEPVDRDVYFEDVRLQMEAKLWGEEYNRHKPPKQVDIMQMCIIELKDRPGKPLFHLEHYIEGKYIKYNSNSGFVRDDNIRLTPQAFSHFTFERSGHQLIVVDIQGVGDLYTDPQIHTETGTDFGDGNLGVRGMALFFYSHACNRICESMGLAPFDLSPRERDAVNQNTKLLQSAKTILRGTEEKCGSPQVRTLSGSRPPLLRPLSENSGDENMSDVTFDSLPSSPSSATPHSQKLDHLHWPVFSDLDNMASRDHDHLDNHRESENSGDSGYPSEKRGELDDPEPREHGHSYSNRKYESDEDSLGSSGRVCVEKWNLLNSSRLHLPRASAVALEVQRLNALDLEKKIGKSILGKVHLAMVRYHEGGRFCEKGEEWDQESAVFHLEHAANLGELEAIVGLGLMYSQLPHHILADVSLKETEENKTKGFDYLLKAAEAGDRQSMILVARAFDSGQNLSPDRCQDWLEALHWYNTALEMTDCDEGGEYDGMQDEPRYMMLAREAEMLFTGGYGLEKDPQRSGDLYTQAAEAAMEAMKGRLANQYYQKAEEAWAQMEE
Particulars: atp_concentration=15, read-out: % of control remaining.
From the text: as §1

Read-outs that look alike come from different tables or passages of the source.

T1 sequence (Q13131 whole entry): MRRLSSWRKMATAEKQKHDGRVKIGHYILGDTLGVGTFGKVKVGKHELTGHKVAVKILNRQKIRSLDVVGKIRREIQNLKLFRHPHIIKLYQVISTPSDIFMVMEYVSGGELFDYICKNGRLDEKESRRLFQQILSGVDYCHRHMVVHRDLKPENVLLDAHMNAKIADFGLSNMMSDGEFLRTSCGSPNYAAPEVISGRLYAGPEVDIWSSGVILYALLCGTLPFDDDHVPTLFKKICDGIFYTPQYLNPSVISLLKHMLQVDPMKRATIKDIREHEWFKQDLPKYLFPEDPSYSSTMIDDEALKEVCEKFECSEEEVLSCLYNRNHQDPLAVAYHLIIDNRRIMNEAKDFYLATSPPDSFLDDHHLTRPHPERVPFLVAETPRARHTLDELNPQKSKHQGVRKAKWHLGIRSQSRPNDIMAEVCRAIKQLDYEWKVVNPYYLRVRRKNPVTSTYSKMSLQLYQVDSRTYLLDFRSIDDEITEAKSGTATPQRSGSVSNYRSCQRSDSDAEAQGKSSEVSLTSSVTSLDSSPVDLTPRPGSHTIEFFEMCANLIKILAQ
T1 sequence (P54619 whole entry partner): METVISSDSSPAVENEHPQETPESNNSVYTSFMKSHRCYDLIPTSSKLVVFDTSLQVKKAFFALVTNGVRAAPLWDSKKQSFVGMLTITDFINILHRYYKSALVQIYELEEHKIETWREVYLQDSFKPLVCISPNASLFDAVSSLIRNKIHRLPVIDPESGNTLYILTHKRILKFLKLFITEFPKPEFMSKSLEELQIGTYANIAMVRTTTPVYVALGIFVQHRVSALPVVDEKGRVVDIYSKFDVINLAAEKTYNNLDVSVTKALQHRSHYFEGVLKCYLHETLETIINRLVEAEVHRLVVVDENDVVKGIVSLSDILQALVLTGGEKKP
T1 sequence (Q9Y478 whole entry partner): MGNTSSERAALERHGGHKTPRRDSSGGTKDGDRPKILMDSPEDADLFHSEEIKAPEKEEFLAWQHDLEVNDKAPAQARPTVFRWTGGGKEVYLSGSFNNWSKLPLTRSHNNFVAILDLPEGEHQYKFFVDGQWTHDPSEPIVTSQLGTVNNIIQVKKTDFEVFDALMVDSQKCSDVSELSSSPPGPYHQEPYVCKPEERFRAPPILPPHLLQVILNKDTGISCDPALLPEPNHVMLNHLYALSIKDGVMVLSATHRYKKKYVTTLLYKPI
T4 sequence (P42338 whole entry): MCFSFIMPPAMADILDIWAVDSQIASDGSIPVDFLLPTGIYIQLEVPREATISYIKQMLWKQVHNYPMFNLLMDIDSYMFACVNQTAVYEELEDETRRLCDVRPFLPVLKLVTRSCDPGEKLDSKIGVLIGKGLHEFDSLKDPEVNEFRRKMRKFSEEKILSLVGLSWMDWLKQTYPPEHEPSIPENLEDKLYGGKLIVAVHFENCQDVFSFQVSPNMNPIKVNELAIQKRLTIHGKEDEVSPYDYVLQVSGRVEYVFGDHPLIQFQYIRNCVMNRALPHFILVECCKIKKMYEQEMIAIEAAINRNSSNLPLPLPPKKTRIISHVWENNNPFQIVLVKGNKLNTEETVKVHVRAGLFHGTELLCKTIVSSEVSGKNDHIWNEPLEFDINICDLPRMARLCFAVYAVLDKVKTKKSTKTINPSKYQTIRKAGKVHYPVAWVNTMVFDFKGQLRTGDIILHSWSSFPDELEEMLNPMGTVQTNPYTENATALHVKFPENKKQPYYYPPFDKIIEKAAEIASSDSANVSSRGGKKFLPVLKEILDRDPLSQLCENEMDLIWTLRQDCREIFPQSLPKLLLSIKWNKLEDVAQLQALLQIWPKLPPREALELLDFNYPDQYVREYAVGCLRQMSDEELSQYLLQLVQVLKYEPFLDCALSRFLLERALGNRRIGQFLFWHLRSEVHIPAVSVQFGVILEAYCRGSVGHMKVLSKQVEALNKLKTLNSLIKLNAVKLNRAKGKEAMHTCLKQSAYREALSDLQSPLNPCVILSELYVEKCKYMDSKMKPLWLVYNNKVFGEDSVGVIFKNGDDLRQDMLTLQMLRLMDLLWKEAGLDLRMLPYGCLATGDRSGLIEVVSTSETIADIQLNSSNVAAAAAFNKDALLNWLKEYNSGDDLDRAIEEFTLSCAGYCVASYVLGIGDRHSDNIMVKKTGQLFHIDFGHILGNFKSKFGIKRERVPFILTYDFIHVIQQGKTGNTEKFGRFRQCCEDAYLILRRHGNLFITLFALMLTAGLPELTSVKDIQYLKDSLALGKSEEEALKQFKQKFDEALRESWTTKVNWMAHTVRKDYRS
T4 sequence (P27986 whole entry partner): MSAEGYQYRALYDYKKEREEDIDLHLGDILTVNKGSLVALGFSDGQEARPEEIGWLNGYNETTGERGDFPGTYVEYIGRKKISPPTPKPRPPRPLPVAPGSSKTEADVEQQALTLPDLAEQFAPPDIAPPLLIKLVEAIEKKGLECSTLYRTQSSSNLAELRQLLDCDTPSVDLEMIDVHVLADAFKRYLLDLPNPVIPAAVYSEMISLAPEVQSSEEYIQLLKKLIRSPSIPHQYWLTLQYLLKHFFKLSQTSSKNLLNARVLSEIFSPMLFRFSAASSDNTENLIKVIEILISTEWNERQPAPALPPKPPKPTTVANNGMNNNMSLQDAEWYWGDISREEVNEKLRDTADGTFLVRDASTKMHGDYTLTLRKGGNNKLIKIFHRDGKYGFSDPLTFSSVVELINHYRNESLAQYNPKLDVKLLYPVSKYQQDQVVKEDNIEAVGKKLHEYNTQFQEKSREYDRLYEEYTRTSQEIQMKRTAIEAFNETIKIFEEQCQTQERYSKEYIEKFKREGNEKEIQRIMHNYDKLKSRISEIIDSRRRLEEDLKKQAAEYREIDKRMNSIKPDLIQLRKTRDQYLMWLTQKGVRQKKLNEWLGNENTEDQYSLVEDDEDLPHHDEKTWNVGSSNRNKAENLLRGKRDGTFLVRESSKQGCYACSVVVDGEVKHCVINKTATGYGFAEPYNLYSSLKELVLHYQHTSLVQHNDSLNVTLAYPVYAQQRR
T7 sequence (P04049 whole entry): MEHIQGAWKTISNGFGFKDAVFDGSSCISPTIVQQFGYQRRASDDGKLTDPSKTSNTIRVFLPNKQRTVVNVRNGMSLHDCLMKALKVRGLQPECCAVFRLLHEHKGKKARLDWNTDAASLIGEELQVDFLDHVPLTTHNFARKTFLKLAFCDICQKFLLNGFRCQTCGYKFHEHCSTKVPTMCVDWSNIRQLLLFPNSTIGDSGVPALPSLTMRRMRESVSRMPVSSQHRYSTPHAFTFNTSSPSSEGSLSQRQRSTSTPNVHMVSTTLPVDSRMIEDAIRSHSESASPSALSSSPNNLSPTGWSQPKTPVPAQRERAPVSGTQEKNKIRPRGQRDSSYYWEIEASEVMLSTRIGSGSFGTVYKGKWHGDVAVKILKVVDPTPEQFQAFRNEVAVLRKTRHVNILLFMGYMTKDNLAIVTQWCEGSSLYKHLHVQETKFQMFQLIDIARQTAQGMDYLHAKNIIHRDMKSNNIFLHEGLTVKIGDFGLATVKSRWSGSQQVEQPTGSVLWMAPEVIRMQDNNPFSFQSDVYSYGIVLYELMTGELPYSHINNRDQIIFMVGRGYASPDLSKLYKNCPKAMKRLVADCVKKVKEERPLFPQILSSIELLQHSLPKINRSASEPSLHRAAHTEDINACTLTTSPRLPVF

With `CC(C)[C@H](Nc1ncnc2[nH]c(-c3cnn(C)c3C#N)cc12)c1ccc2c(n1)OCCO2` [ASAP-0010715], the remaining activity at 10 µM in assay [1] (batch_name=ASAP-0010715-002) was found to be 111%; in assay [2] (batch_name=ASAP-0010715-002), 102%; in [3] (batch_name=ASAP-0010715-002) it was 85%; in assay [4] (batch_name=ASAP-0010715-002), 105%; in assay [5] (batch_name=ASAP-0010715-002) it was 99%; in assay [6] (batch_name=ASAP-0010715-002), 86%. Besides, the remaining activity at 10 µM came to 80% in assay [7] (batch_name=ASAP-0010715-002), 84% in [8] (batch_name=ASAP-0010715-002), 97% in [9] (batch_name=ASAP-0010715-002) and 108% in assay [10] (batch_name=ASAP-0010715-002).

As for `COc1ccc([C@H](Cc2nnn[nH]2)NC(=O)c2ncnc3[nH]ccc23)cc1` [ASAP-0015381], the remaining activity at 10 µM in assay [1] (batch_name=ASAP-0015381-001) was determined as 97%; in assay [2] (batch_name=ASAP-0015381-001), 102%; in assay [3] (batch_name=ASAP-0015381-001), 103%; in assay [4] (batch_name=ASAP-0015381-001) it was 106%; in assay [5] (batch_name=ASAP-0015381-001), 107%; in assay [6] (batch_name=ASAP-0015381-001), 97%. For the same compound, the remaining activity at 10 µM worked out at 88% in assay [7] (batch_name=ASAP-0015381-001), 109% in assay [8] (batch_name=ASAP-0015381-001), 103% in assay [9] (batch_name=ASAP-0015381-001) and 96% in assay [10] (batch_name=ASAP-0015381-001).

The values are drawn from doi:10.1101/2024.08.19.608619, “Discovery of potent SARS-CoV-2 nsp3 macrodomain inhibitors uncovers lack of translation to cellular antiviral response” (bioRxiv, 2024).
